Measurements: ChEMBL document CHEMBL3286268, “Green synthesis and anti-inflammatory studies of a series of 1,1-bis(heteroaryl)alkane derivatives” (Eur J Med Chem, 2014)

Columns and labels:
[1] = Cytotoxicity against mouse RAW264.7 cells assessed as cell viability at 50 uM after 22 hrs by MTT assay relative to control; assay type: cell-based; settings: read-out: Activity
[2] = test system: RAW264.7; assay: Antiinflammatory activity in mouse RAW264.7 cells assessed as inhibition of LPS-induced nitrite production at 50 uM after 22 hrs by Griess method relative to LPS-treated control; assay type: functional; settings: RAW264.7, 22 h
[3] = test system: RAW264.7; assay: Antiinflammatory activity in mouse RAW264.7 cells assessed as inhibition of LPS-induced nitrite production after 22 hrs by Griess method; assay type: functional, cell-based; settings: RAW264.7, 22 h

Q: With `Cc1ccc(C(c2ccc(F)cc2)c2ccc(C)o2)o1` as the molecule, how does the viability at 22 h, 50 µM [1] read?
A: The viability at 22 h, 50 µM was 97.8%.

Q: And the inhibition at 50 µM [2]?
A: Its inhibition at 50 µM is 64.2%.

Q: And the IC50 [3]?
A: Its IC50 is 44.8 µM.

Q: What does the source list for `CCc1ccc(C(c2ccccc2)c2ccc(CC)o2)o1`?
A: viability at 22 h, 50 µM [1]: 101%; inhibition at 50 µM [2]: 41.5%; IC50 [3]: 70.5 µM

Q: What does the source list for `CCc1ccc(C(c2ccc([N+](=O)[O-])cc2)c2ccc(CC)o2)o1`?
A: viability at 22 h, 50 µM [1]: 101%; inhibition at 50 µM [2]: 63.3%; IC50 [3]: 41.1 µM

Q: For `Cc1ccc(C(c2ccc([N+](=O)[O-])cc2)c2ccc(C)o2)o1`, which viability at 22 h, 50 µM [1] is on record?
A: Its viability at 22 h, 50 µM is 96.3%.

Q: What about the inhibition at 50 µM [2] of the same molecule?
A: Its inhibition at 50 µM is 73.2%.

Q: What about the IC50 [3] of the same molecule?
A: The IC50 was 42.4 µM.

Q: Which viability at 22 h, 50 µM [1] does the source give for `CCC(CC)C(c1ccc(C)o1)c1ccc(C)o1` here?
A: The viability at 22 h, 50 µM was 101%.

Q: What about the inhibition at 50 µM [2] of the same molecule?
A: Its inhibition at 50 µM is 26.6%.

Q: Which viability at 22 h, 50 µM [1] does the source give for `CCc1ccc(C(c2ccc([N+](=O)[O-])cc2)c2ccc(CC)[nH]2)[nH]1` here?
A: The viability at 22 h, 50 µM was 99.2%.

Q: What about the inhibition at 50 µM [2] of the same molecule?
A: Its inhibition at 50 µM is 50.7%.

Q: What about the IC50 [3] of the same molecule?
A: The IC50 was 56.9 µM.

Q: Which viability at 22 h, 50 µM [1] does the source give for `Cc1ccc(C(CC(C)C)c2ccc(C)o2)o1` here?
A: The viability at 22 h, 50 µM was 101%.

Q: What about the inhibition at 50 µM [2] of the same molecule?
A: The inhibition at 50 µM was 21.4%.

Q: What does the source list for `COc1ccc(C(c2ccc(C)o2)c2ccc(C)o2)cc1`?
A: viability at 22 h, 50 µM [1]: 97.8%; inhibition at 50 µM [2]: 34.6%

Q: With `O=[N+]([O-])c1ccc(C(c2ccc[nH]2)c2ccc[nH]2)cc1` as the molecule, how does the viability at 22 h, 50 µM [1] read?
A: Its viability at 22 h, 50 µM is 95.8%.

Q: And the inhibition at 50 µM [2]?
A: Its inhibition at 50 µM is 26.9%.

Q: Which viability at 22 h, 50 µM [1] does the source give for `CCC(c1ccc(C)o1)c1ccc(C)o1` here?
A: The viability at 22 h, 50 µM was 101%.

Q: And the inhibition at 50 µM [2]?
A: Its inhibition at 50 µM is 30.9%.

Q: What does the source list for `Cc1ccc(C(c2ccc(Br)cc2)c2ccc(C)o2)o1`?
A: viability at 22 h, 50 µM [1]: 101%; inhibition at 50 µM [2]: 24.9%

Q: Which viability at 22 h, 50 µM [1] does the source give for `N=C(N)NN` [PIMAGEDINE] here?
A: Its viability at 22 h, 50 µM is 100%.

Q: And the inhibition at 50 µM [2]?
A: The inhibition at 50 µM was 70.2%.

Q: And the IC50 [3]?
A: The IC50 was 43.3 µM.

Q: For `Cc1ccc(C(c2ccc(Cl)cc2)c2ccc(C)o2)o1`, which viability at 22 h, 50 µM [1] is on record?
A: The viability at 22 h, 50 µM was 101%.

Q: And the inhibition at 50 µM [2]?
A: The inhibition at 50 µM was 39.5%.

Q: What about the IC50 [3] of the same molecule?
A: Its IC50 is 50.7 µM.

Q: With `CCCCC(c1ccc(C)o1)c1ccc(C)o1` as the molecule, how does the viability at 22 h, 50 µM [1] read?
A: The viability at 22 h, 50 µM was 100%.

Q: What about the inhibition at 50 µM [2] of the same molecule?
A: The inhibition at 50 µM was 31.7%.

Q: For `Cc1ccc(C(CCc2ccccc2)c2ccc(C)s2)s1`, which viability at 22 h, 50 µM [1] is on record?
A: Its viability at 22 h, 50 µM is 103%.

Q: And the inhibition at 50 µM [2]?
A: Its inhibition at 50 µM is 21.5%.

Q: For `Cc1ccc(C(CCc2ccccc2)c2ccc(C)o2)o1`, which viability at 22 h, 50 µM [1] is on record?
A: The viability at 22 h, 50 µM was 100%.

Q: What about the inhibition at 50 µM [2] of the same molecule?
A: The inhibition at 50 µM was 46.8%.

Q: What about the IC50 [3] of the same molecule?
A: The IC50 was 60.8 µM.

Q: What does the source list for `CCc1ccc(C(CCc2ccccc2)c2ccc(CC)o2)o1`?
A: viability at 22 h, 50 µM [1]: 101%; inhibition at 50 µM [2]: 39.4%; IC50 [3]: 74.2 µM

Q: With `Cc1ccc(C(c2ccc(C)o2)C2CCCCC2)o1` as the molecule, how does the viability at 22 h, 50 µM [1] read?
A: The viability at 22 h, 50 µM was 102%.

Q: What about the inhibition at 50 µM [2] of the same molecule?
A: The inhibition at 50 µM was 36.9%.

Q: Which results are given for `COc1cc(C(c2ccc(C)o2)c2ccc(C)o2)ccc1O`?
A: viability at 22 h, 50 µM [1]: 98.2%; inhibition at 50 µM [2]: 63.7%; IC50 [3]: 44 µM

Q: For `c1ccc(C(c2ccc[nH]2)c2ccc[nH]2)cc1`, which viability at 22 h, 50 µM [1] is on record?
A: The viability at 22 h, 50 µM was 100%.

Q: What about the inhibition at 50 µM [2] of the same molecule?
A: The inhibition at 50 µM was 2.1%.

Q: Which viability at 22 h, 50 µM [1] does the source give for `Cc1ccc(C(c2ccccc2)c2ccc(C)o2)o1` here?
A: Its viability at 22 h, 50 µM is 99.3%.

Q: And the inhibition at 50 µM [2]?
A: The inhibition at 50 µM was 33.4%.
